From patent US20220204489A1, “ARYLSULFONYLTHIOPHENECARBOXAMIDES AND ARYLSULFONYLFURANCARBOXAMIDES AS Kv3 POTASSIUM CHANNEL ACTIVATORS” (H. Lundbeck A/S, priority 2019, published 2022)

Target: T1, hKv3.1b (Homo sapiens, UniProt P48547)
T1 construct: expressed in transfected cells
T1 sequence (P48547 1-585 isoform P48547-2): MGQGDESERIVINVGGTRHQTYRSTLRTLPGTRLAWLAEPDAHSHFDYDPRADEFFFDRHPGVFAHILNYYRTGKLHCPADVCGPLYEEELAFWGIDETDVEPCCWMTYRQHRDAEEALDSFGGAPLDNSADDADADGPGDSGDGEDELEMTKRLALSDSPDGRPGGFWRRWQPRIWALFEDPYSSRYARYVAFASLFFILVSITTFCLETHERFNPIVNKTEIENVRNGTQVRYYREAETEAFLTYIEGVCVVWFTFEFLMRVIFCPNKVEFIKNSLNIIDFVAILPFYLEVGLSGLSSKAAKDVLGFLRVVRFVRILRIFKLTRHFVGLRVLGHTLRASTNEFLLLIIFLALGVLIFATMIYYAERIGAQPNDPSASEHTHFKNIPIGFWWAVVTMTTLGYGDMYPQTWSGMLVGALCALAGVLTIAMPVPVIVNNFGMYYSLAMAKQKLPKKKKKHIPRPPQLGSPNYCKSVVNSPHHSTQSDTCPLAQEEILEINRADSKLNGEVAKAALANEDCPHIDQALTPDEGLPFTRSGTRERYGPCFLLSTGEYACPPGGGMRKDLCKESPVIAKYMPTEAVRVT
Assay: QPatch automated whole-cell patch-clamp, shift of voltage threshold for channel activation
Type: cell-based
Settings: HEK-293 cells stably expressing hKv3.1b; for ECdelta5mV: concentration needed to shift the threshold 5 mV, read from fitted concentration response curve; for Max threshold shift: maximum absolute shift of activation threshold to more hyperpolarized potentials at tested concentrations (0.37, 1.11, 3.33, 10, 30 μM)
Method: HEK-293 cells stably expressing hKv3.1b was used for the experiments. Cells were cultured in DMEM medium supplemented with 10% Fetal Bovine Serum, 100 ug/mL Geneticidin and 100 u/mL Penicillin/Streptomycin (all from Gibco). Cells were grown to 80-90% confluency at 37° C. and 5% CO2. On the day of the experiment the cells were detached from the tissue culture flasks by Detachin and resuspended in serum free medium containing 25 mM HEPES and transferred to the cell hotel of the QPatch. The cells were used for experiments 0-5 hours after detachment.
Patch-clamp recordings were performed using the automated recording system QPatch-16× (Sophion Bioscience, Denmark). Cells were centrifuged, SFM removed and the cells were resuspended in extracellular buffer containing (in mM): 145 NaCl, 4 KCl, 1 MgCl2, 2 CaCl2, 10 HEPES and 10 glucose (added fresh on the day of experiment); pH 7.4 adjusted with NaOH, 305 mOsm adjusted with sucrose.
Single cell whole-cell recordings were carried out using an intracellular solution containing (in mM): 120 KCl, 32.25/10 KOH/EGTA, 5.374 CaCl2, 1.75 MgCl2, 10 HEPES, 4 Na2ATP (added fresh on the day), pH 7.2 adjusted with KOH, 395 mOsm adjusted with sucrose. Cell membrane potentials were held at −80 mV and currents were evoked by voltage steps (200 ms duration) from −70 mV to +10 mV (in 10 mV increments). Vehicle (0.33% DMSO) or increasing concentration of compound (1) were applied and the voltage protocol was run 3 times (resulting in 3 min cpd incubation time). Five increasing concentrations of compound (1) were applied to each cell.
Leak subtraction protocol was applied at −33% of the sweep amplitude, and serial resistance values were constantly monitored.
Any cell where serial resistance exceeded 25 MOhm, membrane resistance less than 200 MOhm or current size at −10 mV less than 200 pA was eliminated from the subsequent analysis.
Data analysis was performed using Sophion's QPatch assay software in combination with Microsoft Excel™ (Redmond, Wash., USA).
Current voltage relationships were plotted from the peak current at the individual voltage steps normalized to the vehicle addition at 10 mV. The voltage threshold for channel activation was defined as 5% activation of the peak current at 10 mV in presence of vehicle. The activity of the compounds was described as the ability to shift this current voltage relationship to more hyperpolarized potentials and is given as the maximum absolute shift possible at the tested concentrations (0.37, 1.11, 3.33, 10, 30 μM). Concentration response curves were plotted from the threshold shift at the individual concentrations and were fitted excel fit model 205 sigmodal dose-response model (fit=A+((B−A)/1+((C/x)^D)))), where A is the minimum value, B the maximum value, C the EC50 value and D the slope of the curve. The concentration needed to shift the threshold 5 mV was readout from this curve (ECdelta5 mV).

Row | ECdelta5mV | Max threshold shift | SMILES
1 | 1200 nM | 24 mV | Cc1ccc(S(=O)(=O)c2ccc(C(=O)NCc3cnc(C)cn3)s2)cc1 [Compound 1, 5-(4-methylbenzene-1-sulfonyl)-N-[(5-methylpyrazin-2-yl)methyl]thiophene-2-carboxamide]
2 | 2200 nM | 19 mV | Cc1cnc(CNC(=O)c2ccc(S(=O)(=O)c3ccc(F)cc3)s2)cn1 [Compound 3, 5-(4-fluorobenzene-1-sulfonyl)-N-[(5-methylpyrazin-2-yl)methyl]thiophene-2-carboxamide]
3 | 2100 nM | 21 mV | Cc1ccc(S(=O)(=O)c2ccc(C(=O)NCc3ccc(C)nc3)s2)cc1 [Compound 5, 5-(4-methylbenzene-1-sulfonyl)-N-[(6-methylpyridin-3-yl)methyl]thiophene-2-carboxamide]
4 | 3100 nM | 12 mV | Cc1ccc(S(=O)(=O)c2ccc(C(=O)NCc3ncc(C)cn3)s2)cc1 [Compound 6, 5-(4-methylbenzene-1-sulfonyl)-N-[(5-methylpyrimidin-2-yl)methyl]thiophene-2-carboxamide]
5 | 2500 nM | 17 mV | Cc1ccc(S(=O)(=O)c2ccc(C(=O)NCc3ccn(C)n3)s2)cc1 [Compound 7, 5-(4-methylbenzene-1-sulfonyl)-N-[(1-methyl-1H-pyrazol-3-yl)methyl]thiophene-2-carboxamide]
6 | 2900 nM | 16 mV | Cc1ccc(S(=O)(=O)c2ccc(C(=O)NCc3cccnc3)s2)cc1 [Compound 8, 5-(4-methylbenzene-1-sulfonyl)-N-[(pyridin-3-yl)methyl]thiophene-2-carboxamide]
7 | 2600 nM | 17 mV | Cc1ccc(S(=O)(=O)c2ccc(C(=O)NCc3cnn(C)c3)s2)cc1 [Compound 9, 5-(4-methylbenzene-1-sulfonyl)-N-[(1-methyl-1H-pyrazol-4-yl)methyl]thiophene-2-carboxamide]
8 | 1200 nM | 25 mV | Cc1ccc(S(=O)(=O)c2ccc(C(=O)NCc3cnccn3)s2)cc1 [Compound 10, 5-(4-methylbenzene-1-sulfonyl)-N-[(pyrazin-2-yl)methyl]thiophene-2-carboxamide]
9 | 2000 nM | 22 mV | Cc1ccc(S(=O)(=O)c2ccc(C(=O)NCc3ccc(C)nn3)s2)cc1 [Compound 14, 5-(4-methylbenzene-1-sulfonyl)-N-[(6-methylpyridazin-3-yl)methyl]thiophene-2-carboxamide]
10 | 3100 nM | 20 mV | Cc1ccc(S(=O)(=O)c2ccc(C(=O)NCc3ncn(C)n3)s2)cc1 [Compound 15, 5-(4-methylbenzene-1-sulfonyl)-N-[(1-methyl-1H-1,2,4-triazol-3-yl)methyl]thiophene-2-carboxamide]
11 | 1700 nM | 24 mV | Cc1ccc(S(=O)(=O)c2ccc(C(=O)NCc3cnc(C)nc3)s2)cc1 [Compound 17, 5-(4-methylbenzene-1-sulfonyl)-N-[(2-methylpyrimidin-5-yl)methyl]thiophene-2-carboxamide]
12 | 3800 nM | 14 mV | Cc1cc(F)ccc1S(=O)(=O)c1ccc(C(=O)NCc2cnccn2)s1 [Compound 19, 5-(4-fluoro-2-methylbenzene-1-sulfonyl)-N-[(pyrazin-2-yl)methyl]thiophene-2-carboxamide]

Further lines, the compound ahead of its results:

Row | SMILES | ECdelta5mV | Max threshold shift
13 | Cc1cnc(CNC(=O)c2ccc(S(=O)(=O)c3ccc(Cl)cc3)s2)cn1 [Compound 2, 5-(4-chlorobenzene-1-sulfonyl)-N-[(5-methylpyrazin-2-yl)methyl]thiophene-2-carboxamide] | 1200 nM | 36 mV
14 | Cc1cnc(CNC(=O)c2ccc(S(=O)(=O)c3ccccc3C)s2)cn1 [Compound 4, 5-(2-methylbenzene-1-sulfonyl)-N-[(5-methylpyrazin-2-yl)methyl]thiophene-2-carboxamide] | 1200 nM | 30 mV
15 | Cc1ccc(S(=O)(=O)c2ccc(C(=O)NCc3nc(C)no3)s2)cc1 [Compound 11, 5-(4-methylbenzene-1-sulfonyl)-N-[(3-methyl-1,2,4-oxadiazol-5-yl)methyl]thiophene-2-carboxamide] | 2500 nM | 17 mV
16 | Cc1ccc(S(=O)(=O)c2ccc(C(=O)NCc3cc(C)no3)s2)cc1 [Compound 13, 5-(4-methylbenzene-1-sulfonyl)-N-[(3-methyl-1,2-oxazol-5-yl)methyl]thiophene-2-carboxamide] | 2600 nM | 14 mV
17 | COc1ccc(S(=O)(=O)c2ccc(C(=O)NCc3cnc(C)cn3)s2)cc1 [Compound 16, 5-(4-methoxybenzene-1-sulfonyl)-N-[(5-methylpyrazin-2-yl)methyl]thiophene-2-carboxamide] | 1500 nM | 24 mV
18 | Cc1cnc(CNC(=O)c2ccc(S(=O)(=O)c3ccccc3)s2)cn1 [Compound 18, 5-(benzenesulfonyl)-N-[(5-methylpyrazin-2-yl)methyl]thiophene-2-carboxamide] | 2400 nM | 17 mV
19 | Cc1cnc(CNC(=O)c2ccc(S(=O)(=O)c3ccc(F)cc3C)s2)cn1 [Compound 20, 5-(4-fluoro-2-methylbenzene-1-sulfonyl)-N-[(5-methylpyrazin-2-yl)methyl]thiophene-2-carboxamide] | 1900 nM | 29 mV
20 | Cc1cnc(CNC(=O)c2ccc(S(=O)(=O)c3ccc(C(F)F)cc3)s2)cn1 [Compound 21, 5-[4-(difluoromethyl)benzene-1-sulfonyl]-N-[(5-methylpyrazin-2-yl)methyl]thiophene-2-carboxamide] | 1700 nM | 32 mV
21 | Cc1ccc(S(=O)(=O)c2ccc(C(=O)NCc3cnc(C)cn3)o2)cc1 [Compound 22, 5-(4-methylbenzene-1-sulfonyl)-N-[(5-methylpyrazin-2-yl)methyl]furan-2-carboxamide] | 2100 nM | 27 mV
22 | Cc1ccc(S(=O)(=O)c2ccc(C(=O)NCc3ccn(C)n3)o2)cc1 [Compound 23, 5-(4-methylbenzene-1-sulfonyl)-N-[(1-methyl-1H-pyrazol-3-yl)methyl]furan-2-carboxamide] | 2400 nM | 17 mV
23 | COc1ccc(S(=O)(=O)c2ccc(C(=O)NCc3cnccn3)o2)cc1 [Compound 24, 5-(4-methoxybenzene-1-sulfonyl)-N-[(pyrazin-2-yl)methyl]furan-2-carboxamide] | 2700 nM | 20 mV
24 | Cc1ccc(S(=O)(=O)c2ccc(C(=O)NCc3cc(F)ccn3)o2)cc1 [Compound 25, N-[(4-fluoropyridin-2-yl)methyl]-5-(4-methylbenzene-1-sulfonyl)furan-2-carboxamide] | 4100 nM | 15 mV
